In patent US8344028B2, “Gamma-amino-butyric acid derivatives as GABAB receptor ligands” (XenoPort, Inc., priority 2009, dated 2013):
pEC50, pIC50: −log10 of the molar value. Counter-ions that a name gives are not always drawn.

Columns and labels:
[1] = molecular target: T1, recombinant human GABABR1a2 (Homo sapiens, UniProt Q9UBS5); assay: Ca2+ assay for determining GABAB receptor agonist activity; type: cell-based; conditions: cells expressing recombinant human GABABR1a2
T1 construct: expressed in transfected cells; host or cells: HEK cells
Description: The following procedure was used to determine the GABAB receptor agonist activity of a compound as reflected by activation of Ca^2+ signaling. HEK TREx cells expressing GABABR1a2 under tetracycline induction control, and Gqi chimeric protein (expressed constitutively), allowing GABABR coupling through the Ca^2+ signaling pathway were used in the experiments.
Cells were seeded in media containing tetracycline overnight at 100,000 cells/well, in black, clear-bottom, 96-well plates. The following morning, cells were washed twice with 100 μL HBSS buffer per well. Fluorescent Ca^2+ indicator dye was prepared using the materials and procedure described in the F362056 Fluo-4 NW Calcium Assay Kit (Invitrogen, Carlsbad, Calif.). Ten (10) mL of kit buffer and 100 μl of kit Probenecid were added to individual kit dye vials, and rolled back and forth several times to dissolve the dye. Cells were then loaded into the dye solution at 50 μL per well. The cells and dye were incubated for 30 min at 37° C., and then incubated for an additional 30 min at room temperature in the dark. Test compounds are dissolved in HBSS buffer at twice final concentration. Duplicate wells were used for each unique condition. Solution containing the test compound was added to the wells using a FLEXStation II (Molecular Devices, Sunnyvale, Calif.). Using the instrument in kinetic mode in which each well was read every 2 sec over a total collection time of 50 sec fluorescence was measured using an excitation wavelength 494 nm and a detection wavelength of 516 nm. A normalized fluorescence value for each well was calculated using the following procedure. The difference in fluorescence at 35 sec (usually representing maximal response) and at 15 sec (a time point prior to addition of test compounds) was calculated, divided by the fluorescence at 15 sec, and the result multiplied by 100. The final value represented the percent increase in fluorescence relative to the fluorescence at 15 sec. Data was analyzed using standard procedures.

[2] = molecular target: T1, recombinant human GABABR1a2; assay: cAMP assay for determining GABAB receptor agonist activity; type: cell-based
Description: The following procedure was used to determine the level of intracellular cAMP. Recombinant HEK cells expressing the GABAB R1a2 receptor were used in the experiments. cAMP levels were measured using a cAMP XS^+ HitHunter™ Chemiluminescence Assay Kit (90-0075-02, GE Healthcare Biosciences Corp.). Cells were seeded overnight at 5,000 cells per well, in black, clear bottom 96-well plates. The following morning, cells were washed twice with 100 μL PBS per well. Forskolin was weighed out and dissolved in DMSO to a final concentration 100 mM. One-hundred (100) μM forskolin solutions were prepared in PBS with and without test compound at 1-times final concentration. Thirty (30) μL of the test solutions were added to the wells and incubated for 1 h at room temperature. The cAMP concentration was determined according to the protocol described in the cAMP assay kit, maintaining the plate at room temperature and in the dark. Two hours after the final kit reagent was added, the plate bottom was covered with black tape, and the plate read using a 1450 MicroBeta Trilux microplate scintillation and luminescence counter (PerkinElmer, Waltham, Mass.). Each well was read for 6 seconds. The untransformed data was then analyzed.

GABAB receptor [3] = molecular target: GABAB receptor (Homo sapiens, UniProt Q9UBS5); assay: GABAB receptor agonist or partial agonist activity by binding, electrophysiology, cAMP and/or Ca2+ assay methods (Examples 83-86); type: cell-based
Outline: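 Binding: rat cortex membranes in 50 mM Tris pH 7.4 with 100 μM isoguvacine were preincubated 10 min at RT with compound, then radiolabeled CGP54626 (1-10 nM) was added; filtered and scintillation-counted. cAMP: GABAB R1a2 HEK cells, 1 h RT with 100 μM forskolin, chemiluminescence.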

GABAB receptor [4] = molecular target: T2, GABAB receptor (Rattus norvegicus, UniProt Q9Z0U4); assay: [3H]CGP54626 rat brain GABAB receptor binding assay; conditions: [3H]CGP54626 rat brain binding assay
T2 construct: from tissue; host or cells: rat cerebral cortex membranes
Description: An assay using rat cerebral cortex membranes was used to determine the affinity of GABAB receptor ligands for the GABAB receptor.
An assay buffer of 50 mM Tris pH 7.4 was prepared with 100 μM of isoguvacine, to block GABAA interactions. The assay buffer with isoguvacine was used for dilution of membranes, compounds, and radiolabel.
Rat cerebral cortex membranes were diluted in assay buffer at 1 mg/mL and aliquoted into a 96-well plate at 900 μL/well. Buffer or test compound were added at 20-times final concentration in the buffer at 50 μL/well. Membranes and test compounds or buffer were incubated for 10 min. at room temperature. Radiolableled [S—(R*,R*)]-[3-[[1-(3,4-dichlorophenyl)ethyl]amino]-2-hydroxypropyl](cyclohexylmethyl) phosphinic acid (CGP54626) was then added at 50 μL/well in the buffer at 1-10 nM concentration in 50 μl. The mixture was incubated for 15 min. at room temperature. The assay mixture was filtered using Brandell filtration apparatus and GFB filters, washed twice with 3 mL of 4° C., 50 mM Tris pH 7.4, buffer without isoguvacine. The filters were then dried at room temperature and the dried filters punched out and placed in individual vials. Three (3) mL of scintillation fluid was added to each vial and the radiolabel counted on the scintillation counter. The inverse amount of radiolabel was indicative of binding of a test compound to the GABAB receptor.

[5] = cells expressing recombinant human GABABR1a2, read-out: cAMP EC50

T2 sequence (Q9Z0U4 20-960): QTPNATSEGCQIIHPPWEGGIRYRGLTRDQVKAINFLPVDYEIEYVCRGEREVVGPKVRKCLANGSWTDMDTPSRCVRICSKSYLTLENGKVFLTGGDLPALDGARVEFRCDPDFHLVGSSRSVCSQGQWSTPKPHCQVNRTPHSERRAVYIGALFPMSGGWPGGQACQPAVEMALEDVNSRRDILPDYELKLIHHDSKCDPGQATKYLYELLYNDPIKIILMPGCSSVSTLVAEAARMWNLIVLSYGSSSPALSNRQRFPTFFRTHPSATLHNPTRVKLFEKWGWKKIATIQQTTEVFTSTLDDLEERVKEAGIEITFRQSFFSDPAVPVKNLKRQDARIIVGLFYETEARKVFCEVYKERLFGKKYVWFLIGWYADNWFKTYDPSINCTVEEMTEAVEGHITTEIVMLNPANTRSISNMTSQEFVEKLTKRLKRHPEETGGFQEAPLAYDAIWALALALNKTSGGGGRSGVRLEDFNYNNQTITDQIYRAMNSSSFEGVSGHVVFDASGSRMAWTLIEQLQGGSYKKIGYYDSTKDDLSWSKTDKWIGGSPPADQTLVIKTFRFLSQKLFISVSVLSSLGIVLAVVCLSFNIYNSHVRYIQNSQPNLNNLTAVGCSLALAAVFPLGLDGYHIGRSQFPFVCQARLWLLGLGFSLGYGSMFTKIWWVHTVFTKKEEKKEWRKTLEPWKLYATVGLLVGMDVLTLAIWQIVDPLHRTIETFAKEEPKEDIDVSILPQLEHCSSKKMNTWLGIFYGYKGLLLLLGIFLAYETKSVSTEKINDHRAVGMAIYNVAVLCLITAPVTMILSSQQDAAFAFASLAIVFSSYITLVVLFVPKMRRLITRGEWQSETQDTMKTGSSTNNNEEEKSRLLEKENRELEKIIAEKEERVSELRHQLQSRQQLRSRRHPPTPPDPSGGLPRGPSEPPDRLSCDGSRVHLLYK
T2 sequence (O88871 41-940 partner): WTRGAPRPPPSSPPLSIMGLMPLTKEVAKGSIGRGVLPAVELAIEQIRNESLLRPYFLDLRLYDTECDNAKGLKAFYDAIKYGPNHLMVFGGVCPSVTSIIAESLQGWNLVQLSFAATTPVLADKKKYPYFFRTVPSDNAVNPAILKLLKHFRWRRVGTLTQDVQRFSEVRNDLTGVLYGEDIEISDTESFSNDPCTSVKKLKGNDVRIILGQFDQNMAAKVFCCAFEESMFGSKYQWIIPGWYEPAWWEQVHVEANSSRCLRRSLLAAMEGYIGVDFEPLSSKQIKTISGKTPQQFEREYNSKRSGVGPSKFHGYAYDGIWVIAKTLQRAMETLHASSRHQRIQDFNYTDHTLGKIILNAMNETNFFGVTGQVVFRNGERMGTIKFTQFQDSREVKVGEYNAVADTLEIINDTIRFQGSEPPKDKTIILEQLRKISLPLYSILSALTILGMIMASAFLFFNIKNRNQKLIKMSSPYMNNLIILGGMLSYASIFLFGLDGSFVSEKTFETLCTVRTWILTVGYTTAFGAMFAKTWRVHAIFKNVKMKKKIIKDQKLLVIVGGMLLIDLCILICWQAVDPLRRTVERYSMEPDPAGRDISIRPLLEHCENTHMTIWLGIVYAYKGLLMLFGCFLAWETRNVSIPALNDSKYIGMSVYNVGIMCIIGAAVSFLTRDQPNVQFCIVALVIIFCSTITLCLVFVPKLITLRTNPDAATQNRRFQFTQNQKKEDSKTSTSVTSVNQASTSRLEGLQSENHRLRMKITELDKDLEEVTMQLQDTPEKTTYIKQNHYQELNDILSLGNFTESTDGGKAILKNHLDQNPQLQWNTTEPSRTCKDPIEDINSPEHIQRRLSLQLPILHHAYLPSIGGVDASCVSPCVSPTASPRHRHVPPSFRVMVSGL
Sequence of GABAB receptor (Homo sapiens, UniProt Q9UBS5) (Q9UBS5 20-961): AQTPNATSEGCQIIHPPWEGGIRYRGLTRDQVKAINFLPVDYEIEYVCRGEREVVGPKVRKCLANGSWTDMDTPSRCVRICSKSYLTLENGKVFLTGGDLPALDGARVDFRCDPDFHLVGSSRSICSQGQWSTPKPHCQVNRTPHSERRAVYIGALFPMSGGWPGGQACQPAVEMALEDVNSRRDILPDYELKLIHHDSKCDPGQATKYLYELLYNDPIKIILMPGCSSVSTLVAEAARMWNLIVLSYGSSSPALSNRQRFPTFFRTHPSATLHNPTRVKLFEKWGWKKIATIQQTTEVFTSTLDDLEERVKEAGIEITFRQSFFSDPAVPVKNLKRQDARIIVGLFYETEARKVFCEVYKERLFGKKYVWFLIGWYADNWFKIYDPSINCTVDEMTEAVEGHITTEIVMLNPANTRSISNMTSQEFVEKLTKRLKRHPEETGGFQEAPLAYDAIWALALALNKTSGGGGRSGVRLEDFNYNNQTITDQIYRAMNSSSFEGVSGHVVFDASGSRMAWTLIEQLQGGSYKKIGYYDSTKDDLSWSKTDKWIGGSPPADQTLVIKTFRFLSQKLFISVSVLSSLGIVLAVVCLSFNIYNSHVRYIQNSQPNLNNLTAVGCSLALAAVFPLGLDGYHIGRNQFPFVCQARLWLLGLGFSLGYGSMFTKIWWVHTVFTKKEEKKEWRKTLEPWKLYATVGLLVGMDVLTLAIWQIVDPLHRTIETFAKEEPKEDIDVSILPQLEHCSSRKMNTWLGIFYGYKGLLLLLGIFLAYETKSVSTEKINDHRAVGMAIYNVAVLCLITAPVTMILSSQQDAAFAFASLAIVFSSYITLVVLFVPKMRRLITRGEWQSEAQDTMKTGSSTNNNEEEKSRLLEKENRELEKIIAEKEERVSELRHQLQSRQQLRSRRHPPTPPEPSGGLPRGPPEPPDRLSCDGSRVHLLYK
Sequence of GABAB receptor (Homo sapiens, UniProt Q9UBS5) (O75899 42-941 partner): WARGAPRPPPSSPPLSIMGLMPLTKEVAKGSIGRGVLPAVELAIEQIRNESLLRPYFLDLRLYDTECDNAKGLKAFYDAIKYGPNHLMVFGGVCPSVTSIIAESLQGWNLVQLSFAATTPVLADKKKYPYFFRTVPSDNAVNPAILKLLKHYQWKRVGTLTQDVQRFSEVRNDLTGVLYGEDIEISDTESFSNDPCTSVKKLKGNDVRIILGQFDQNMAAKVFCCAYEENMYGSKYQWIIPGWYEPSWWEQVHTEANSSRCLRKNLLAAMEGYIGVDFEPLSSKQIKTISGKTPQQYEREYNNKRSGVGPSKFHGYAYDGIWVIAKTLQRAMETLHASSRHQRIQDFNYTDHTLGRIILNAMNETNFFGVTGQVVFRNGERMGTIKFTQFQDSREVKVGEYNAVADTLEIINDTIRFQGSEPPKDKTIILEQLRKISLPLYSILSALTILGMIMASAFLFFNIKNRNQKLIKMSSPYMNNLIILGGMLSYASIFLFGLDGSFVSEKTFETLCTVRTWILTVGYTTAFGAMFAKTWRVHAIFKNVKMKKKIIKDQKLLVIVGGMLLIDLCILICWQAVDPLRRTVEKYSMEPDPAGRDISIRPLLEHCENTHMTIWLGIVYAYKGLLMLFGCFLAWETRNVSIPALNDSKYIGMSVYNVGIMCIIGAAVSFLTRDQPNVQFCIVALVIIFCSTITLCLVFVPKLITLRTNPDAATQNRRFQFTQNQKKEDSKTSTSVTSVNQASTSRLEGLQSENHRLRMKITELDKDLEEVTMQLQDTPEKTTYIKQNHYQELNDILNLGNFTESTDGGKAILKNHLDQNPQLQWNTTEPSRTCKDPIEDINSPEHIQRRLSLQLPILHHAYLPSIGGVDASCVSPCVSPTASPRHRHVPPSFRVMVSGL
T1 sequence (Q9UBS5 15-961 limits assumed): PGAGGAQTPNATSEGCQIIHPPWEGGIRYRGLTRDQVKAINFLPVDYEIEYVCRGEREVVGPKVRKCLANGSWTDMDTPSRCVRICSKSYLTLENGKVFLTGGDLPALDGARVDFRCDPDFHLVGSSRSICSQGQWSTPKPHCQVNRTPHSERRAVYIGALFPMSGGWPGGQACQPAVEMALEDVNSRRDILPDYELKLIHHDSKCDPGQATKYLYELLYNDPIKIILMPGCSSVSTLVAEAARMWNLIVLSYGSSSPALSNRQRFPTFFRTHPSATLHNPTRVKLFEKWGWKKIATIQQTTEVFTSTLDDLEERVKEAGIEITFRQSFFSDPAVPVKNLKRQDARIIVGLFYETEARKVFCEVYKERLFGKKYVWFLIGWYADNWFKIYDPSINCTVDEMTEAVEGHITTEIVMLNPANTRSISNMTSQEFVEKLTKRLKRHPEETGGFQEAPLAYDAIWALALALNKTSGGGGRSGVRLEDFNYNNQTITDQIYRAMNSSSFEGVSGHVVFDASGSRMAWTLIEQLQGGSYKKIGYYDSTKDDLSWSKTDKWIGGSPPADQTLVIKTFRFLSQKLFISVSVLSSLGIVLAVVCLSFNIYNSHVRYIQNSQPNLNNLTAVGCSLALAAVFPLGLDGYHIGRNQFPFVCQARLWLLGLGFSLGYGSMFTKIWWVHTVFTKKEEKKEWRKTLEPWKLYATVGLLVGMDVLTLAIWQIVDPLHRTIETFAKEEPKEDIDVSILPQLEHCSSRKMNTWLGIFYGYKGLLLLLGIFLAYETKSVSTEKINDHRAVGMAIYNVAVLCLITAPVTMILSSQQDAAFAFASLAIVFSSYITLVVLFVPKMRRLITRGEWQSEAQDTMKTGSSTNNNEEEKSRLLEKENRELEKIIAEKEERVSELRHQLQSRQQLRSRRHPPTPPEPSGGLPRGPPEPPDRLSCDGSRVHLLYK
T1 sequence (O75899 42-941 partner): as the sequence (O75899 42-941 partner) above

`Cl.NC[C@H](CC(=O)O)c1ccc(Cl)c(-c2ccc(F)c(C(=O)O)c2)c1` [5-{5-[(1R)-2-amino-1-(carboxymethyl)ethyl]-2-chlorophenyl}-2-fluorobenzoic acid hydrochloride] was tested, and the pEC50 [1] was greater than 6.15, the pEC50 [2, 5] was greater than 7.00 and the “GABAB receptor agonist or partial agonist activity” value (GABAB receptor [3]) was “agonist or partial agonist activity”. It also gave a pIC50 (GABAB receptor [4]) greater than 4.60.

`Cl.NC[C@H](CC(=O)O)c1ccc(Cl)c(CCc2ccncc2)c1` [(3R)-4-amino-3-[4-chloro-3-(2-(4-pyridyl)ethyl)phenyl]butanoic acid hydrochloride] was tested, and the pEC50 [1] was greater than 6.15, the pEC50 [2, 5] was greater than 7.00 and the “GABAB receptor agonist or partial agonist activity” value (GABAB receptor [3]) was “agonist or partial agonist activity”. For the same compound, the pIC50 (GABAB receptor [4]) was greater than 4.60.

With `Cl.N#Cc1cc(F)cc(-c2cc([C@H](CN)CC(=O)O)ccc2Cl)c1` [(3R)-4-amino-3-[4-chloro-3-(3-cyano-5-fluorophenyl)phenyl]butanoic acid hydrochloride] the pEC50 [1] was greater than 6.15, the pEC50 [2, 5] was greater than 7.00 and the “GABAB receptor agonist or partial agonist activity” value (GABAB receptor [3]) was “agonist or partial agonist activity”. It also gave a pIC50 (GABAB receptor [4]) greater than 4.60.

With `Cl.N#Cc1ccc(F)c(-c2cc([C@H](CN)CC(=O)O)ccc2Cl)c1` [(3R)-4-amino-3-[4-chloro-3-(3-cyano-6-fluorophenyl)phenyl]butanoic acid hydrochloride] the pEC50 [1] was greater than 6.15, the pEC50 [2, 5] was greater than 7.00 and the “GABAB receptor agonist or partial agonist activity” value (GABAB receptor [3]) was “agonist or partial agonist activity”. It also gave a pIC50 (GABAB receptor [4]) greater than 4.60.

In the case of `Cc1ccc(C#N)cc1-c1cc([C@H](CN)CC(=O)O)ccc1Cl.Cl` [(3R)-4-amino-3-[4-chloro-3-(3-cyano-6-methylphenyl)phenyl]butanoic acid hydrochloride], the pEC50 [1] was greater than 6.15, the pEC50 [2, 5] was greater than 7.00 and the “GABAB receptor agonist or partial agonist activity” value (GABAB receptor [3]) was “agonist or partial agonist activity”. It also gave a pIC50 (GABAB receptor [4]) greater than 4.60.

`Cl.NC[C@H](CC(=O)O)c1ccc(Cl)c(OCc2cccnc2)c1` [(3R)-4-amino-3-[4-chloro-3-(3-pyridylmethoxy)phenyl]butanoic acid hydrochloride] was tested, and the pEC50 [1] was greater than 6.15, the pEC50 [2, 5] was greater than 7.00 and the “GABAB receptor agonist or partial agonist activity” value (GABAB receptor [3]) was “agonist or partial agonist activity”. It also gave a pIC50 (GABAB receptor [4]) greater than 4.60.

For `Cc1ccncc1-c1cc([C@H](CN)CC(=O)O)ccc1Cl.Cl` [(3R)-4-amino-3-[4-chloro-3-(4-methyl(3-pyridyl))phenyl]butanoic acid hydrochloride], the pEC50 [1] was greater than 6.15, the pEC50 [2, 5] was greater than 7.00 and the “GABAB receptor agonist or partial agonist activity” value (GABAB receptor [3]) was “agonist or partial agonist activity”. For the same compound, the pIC50 (GABAB receptor [4]) was greater than 4.60.

With `Cl.N#Cc1ccc(Cl)c(-c2cc([C@H](CN)CC(=O)O)ccc2Cl)c1` [(3R)-4-amino-3-[4-chloro-3-(6-chloro-3-cyanophenyl)phenyl]butanoic acid hydrochloride] the pEC50 [1] was greater than 6.15, the pEC50 [2, 5] was greater than 7.00 and the “GABAB receptor agonist or partial agonist activity” value (GABAB receptor [3]) was “agonist or partial agonist activity”. It also gave a pIC50 (GABAB receptor [4]) greater than 4.60.

In the case of `Cl.NC[C@H](CC(=O)O)c1ccc(Cl)c(-c2cccc(C(=O)O)c2)c1` [Example 25, 3-{5-[(1R)-2-Amino-1-(carboxymethyl)ethyl]-2-chlorophenyl}benzoic acid hydrochloride], the pEC50 [1] was greater than 6.15, the pEC50 [2, 5] was greater than 7.00 and the “GABAB receptor agonist or partial agonist activity” value (GABAB receptor [3]) was “agonist or partial agonist activity”. It also gave a pIC50 (GABAB receptor [4]) greater than 4.60.

In the case of `Cl.NC[C@H](CC(=O)O)c1ccc(Cl)c(-c2csc(C(=O)O)c2)c1` [Example 27, 4-{5-[(1R)-2-Amino-1-(carboxymethyl)ethyl]-2-chlorophenyl}thiophene-2-carboxylic acid hydrochloride], the pEC50 [1] was greater than 6.15, the pEC50 [2, 5] was greater than 7.00 and the “GABAB receptor agonist or partial agonist activity” value (GABAB receptor [3]) was “agonist or partial agonist activity”. It also gave a pIC50 (GABAB receptor [4]) greater than 4.60.

In the case of `N#Cc1ccc(-c2cc([C@H](CN)CC(=O)O)ccc2Cl)s1` [Example 29, (3R)-4-Amino-3-[4-chloro-3-(5-cyano-2-thienyl))phenyl]butanoic acid hydrochloride], the pEC50 [1] was greater than 6.15, the pEC50 [2, 5] was greater than 7.00 and the “GABAB receptor agonist or partial agonist activity” value (GABAB receptor [3]) was “agonist or partial agonist activity”. The pIC50 (GABAB receptor [4]) was greater than 4.60.

For `Cl.NC[C@H](CC(=O)O)c1ccc(Cl)c(-c2cccnc2)c1` [Example 32, (3R)-4-Amino-3-(4-chloro-3-(3-pyridyl)phenyl)butanoic acid hydrochloride], the pEC50 [1] was greater than 6.15, the pEC50 [2, 5] was greater than 7.00 and the “GABAB receptor agonist or partial agonist activity” value (GABAB receptor [3]) was “agonist or partial agonist activity”. The pIC50 (GABAB receptor [4]) was greater than 4.60.

For `Cl.N#Cc1cccc(-c2cc([C@H](CN)CC(=O)O)ccc2Cl)c1` [Example 33, (3R)-4-Amino-3-[4-chloro-3-(3-cyanophenyl)phenyl]butanoic acid hydrochloride], the pEC50 [1] was greater than 6.15, the pEC50 [2, 5] was greater than 7.00 and the “GABAB receptor agonist or partial agonist activity” value (GABAB receptor [3]) was “agonist or partial agonist activity”. It also gave a pIC50 (GABAB receptor [4]) greater than 4.60.

With `Cl.NC[C@H](CC(=O)O)c1ccc(Cl)c(-c2cccc([N+](=O)[O-])c2)c1` [Example 37, (3R)-4-Amino-3-[4-chloro-3-(3-nitrophenyl)phenyl]butanoic acid hydrochloride] the pEC50 [1] was greater than 6.15, the pEC50 [2, 5] was greater than 7.00 and the “GABAB receptor agonist or partial agonist activity” value (GABAB receptor [3]) was “agonist or partial agonist activity”. The pIC50 (GABAB receptor [4]) was greater than 4.60.

`Cl.NC[C@H](CC(=O)O)c1ccc(Cl)c(-c2cc(C(=O)O)ccc2Cl)c1` [Example 46, 3-{5-[(1R)-2-Amino-1-(carboxymethyl)ethyl]-2-chlorophenyl}-4-chlorobenzoic acid hydrochloride] was tested, and the pEC50 [1] was greater than 6.15, the pEC50 [2, 5] was greater than 7.00 and the “GABAB receptor agonist or partial agonist activity” value (GABAB receptor [3]) was “agonist or partial agonist activity”. For the same compound, the pIC50 (GABAB receptor [4]) was greater than 4.60.

For `Cl.NC[C@H](CC(=O)O)c1ccc(Cl)c(-c2cc(F)cc(C(=O)O)c2)c1` [Example 50, 3-{5-[(1R)-2-Amino-1-(carboxymethyl)ethyl]-2-chlorophenyl}-5-fluorobenzoic acid hydrochloride], the pEC50 [1] was greater than 6.15, the pEC50 [2, 5] was greater than 7.00 and the “GABAB receptor agonist or partial agonist activity” value (GABAB receptor [3]) was “agonist or partial agonist activity”. It also gave a pIC50 (GABAB receptor [4]) greater than 4.60.

`Cl.NC[C@H](CC(=O)O)c1ccc(Cl)c(-c2cccc(C(N)=O)c2)c1` [Example 52, (3R)-4-Amino-3-[3-(3-carbamoylphenyl)-4-chlorophenyl]butanoic acid hydrochloride] was tested, and the pEC50 [1] was greater than 6.15, the pEC50 [2, 5] was greater than 7.00 and the “GABAB receptor agonist or partial agonist activity” value (GABAB receptor [3]) was “agonist or partial agonist activity”. It also gave a pIC50 (GABAB receptor [4]) greater than 4.60.

For `NCC(C[PH](=O)O)c1ccc(Cl)c(OCc2ccncc2)c1` (centres unmarked) [Example 82, 2-{4-Chloro-3-(4-pyridylmethoxy)phenyl]-3-(hydrohydroxyphosphoryl)propylamine], the pEC50 [1] was greater than 6.15, the pEC50 [2] was greater than 7.00 and the pIC50 (GABAB receptor [4]) was greater than 4.60.

`COC(=O)C[C@@H](CN)c1ccc(Cl)c(OCc2ccncc2)c1` [methyl (3R)-4-amino-3-[4-chloro-3-(4-pyridylmethoxy)phenyl]butanoate hydrochloride] showed a pEC50 [1] greater than 6.15, a pEC50 [2, 5] greater than 7.00 and a pIC50 (GABAB receptor [4]) greater than 4.60.
